Laboratory results reported in patent publication US20220017486A1, “DOCK1-INHIBITING COMPOUND AND USE THEREOF” (KYUSHU UNIVERSITY, NATIONAL UNIVERSITY CORPORATION, priority 2018, published 2022).
Entries after “also recorded” stand apart in the source; their conditions may differ.

Key:
[1] = system: mouse lung carcinoma cell line (3LL cells); assay: Cell invasion inhibition assay (Matrigel invasion chamber); format: cell-based; conditions: in words
Summary of the method: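 Matrigel invasion chambers (8 μm pores); cells in serum-free DMEM above, 10% FCS DMEM below, compound in both, 0.2% DMSO final. 3LL (K-Ras G12C), PANC02 and MDA-MB-157 (Rac1 P29S) cultured 22 h (3LL, PANC02) or 48 h (MDA-MB-157) at 37° C. Invaded cells Diff-Quick-stained and counted; % invasion vs DMSO control, % inhibition = 100 − % invasion.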

[2] = system: mouse lung carcinoma cell line (3LL cells) and mouse pancreatic cancer cell line (PANC02 cells); assay: Inhibition of macropinocytosis in cancer cells (TMR-dextran uptake); format: cell-based; conditions: in words, 3LL and PANC02 cells
Method: Therefore, this Pharmacological Test evaluated the inhibitory effect of the compounds of the present invention on macropinocytosis in a mouse lung carcinoma cell line (3LL cells) and a mouse pancreatic cancer cell line (PANC02 cells) as a target. Specifically, 150 μL of mouse lung carcinoma cell line (3LL) or mouse pancreatic cancer cell line (PANC02) (4×10^4 cells) was seeded on the glass portion of fibronectin-coated glass-bottom culture dishes. After 16-hour culture at 37° C., the medium was changed to DMEM (serum free), and cultured for another 24 hours to allow the cells to be serum-starved. Subsequently, the medium was changed to 2 mL of serum-free medium containing DMSO alone (control) or DMSO in which each test compound was dissolved, followed by culture for 1 hour for pretreatment. The final concentration of DMSO was adjusted to 0.2 mass %.
DMSO alone (control) or DMSO in which a predetermined concentration of each test compound was dissolved was added in the same manner as above to TMR-dextran (final concentration: 500 μg/mL)-containing DMEM (with 10 mass % FBS), and the thus-obtained medium (180 μL) was added to the cancer cells pretreated as above, followed by incubation at 37° C. for 1 hour. […] The macropinocytosis activity was measured based on the number of TMR-dextran spots per cell. […]

[3] = system: mouse lung carcinoma cell line (3LL); assay: Tumor growth of subcutaneously transplanted mouse lung carcinoma cells; format: in vivo, C57BL/6 mice
Method: The mouse lung carcinoma cell line (3LL) was suspended in 200 μL of PBS(−), and transplanted (5×10^5 cells per mouse) into the dorsal subcutaneous region of C57BL/6 mice (6 weeks old). To a 6:1:1 mixture of PBS/Cremophor EL/ethanol, RT-22 as a representative of the compounds of the present invention was added to a concentration of 0.25 mg/300 μL, and the resulting mixture was loaded into an SMP-300 micro infusion pump (iPRECIO), which was subcutaneously implanted on the previous day of the transplantation, to perform continuous intravenous administration (n=5 mice). The control group was only administered with an equivalent volume of a solvent (a 6:1:1 mixture of PBS/Cremophor EL/ethanol) (n=6 mice). The transverse and longitudinal diameters of the tumor mass were measured over time for a period of 4 weeks from the start of administration, and the tumor volume (V) was calculated according to the formula: V=π/6x√((transverse diameter×longitudinal diameter)^3).

With `COC(=O)c1cc(S(=O)(=O)N2CCCC2)cn1CC(=O)c1ccc(-c2cccc(C(F)(F)F)c2)cc1` [RT-22, methyl 1-(2-oxo-2-(3′-(trifluoromethyl)-[1,1′-biphenyl]-4-yl)ethyl)-4-(pyrrolidin-1-yl-sulfonyl)-1H-pyrrole-2-carboxylate] the “percent cell invasion inhibition compared with TBOPP” value [1] was “higher percent cell invasion inhibition than TBOPP; also recorded: higher than those of TBOPP”, the “macropinocytosis activity in cancer cells” value [2] was “inhibitory effect on macropinocytosis activity” and the “tumor size as % of that of the control group” value ([3]; 3LL s.c. in C57BL/6 mice, continuous intravenous administration, 0.25 mg/300 μL, day 26 to day 29) was 64 to 69%. For the same compound, the “tumor growth inhibition compared with TBOPP” value ([3]; in words) was “more effective in inhibiting tumor growth than TBOPP”.
